Experimental data: the supplement of paper PMC10307832

Legend:
Assay in all cases: relative viability (nuclei count vs DMSO), 5 days (fraction); higher = more cells survive
Seliciclib + Foretinib = compound: CC[C@H](CO)Nc1nc(NCc2ccccc2)c2ncn(C(C)C)c2n1 [Seliciclib] + COc1cc2c(Oc3ccc(NC(=O)C4(C(=O)Nc5ccc(F)cc5)CC4)cc3F)ccnc2cc1OCCCN1CCOCC1 [Foretinib] (partner 0.25 µM)
Summary of the method: (§1)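 Nuclei were stained with Hoechst during a one-step fixation (final 0.05% Triton X-100, 1% formaldehyde, 1 ug/ml Hoechst) carried out 5 days after dosing, then counted on 4× images. The cells, lung cancer lines in 1536-well plates, had been dosed by pin tool the day after seeding with one drug alone or a fixed anchor-drug dose plus five library-drug doses (not always all listed) in √10 steps. Relative viability is the nuclei count in treated wells divided by that in vehicle wells, and each value is the median of duplicate plates.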

Seliciclib + Luminespib = compound: CC[C@H](CO)Nc1nc(NCc2ccccc2)c2ncn(C(C)C)c2n1 [Seliciclib] + CCNC(=O)c1noc(-c2cc(C(C)C)c(O)cc2O)c1-c1ccc(CN2CCOCC2)cc1 [Luminespib] (partner 0.01 µM)
Summary of the method: as §1

Seliciclib + AZD7762 = compound: CC[C@H](CO)Nc1nc(NCc2ccccc2)c2ncn(C(C)C)c2n1 [Seliciclib] + NC(=O)Nc1cc(-c2cccc(F)c2)sc1C(=O)N[C@H]1CCCNC1 [AZD7762] (partner 0.2 µM)
Summary of the method: as §1

Seliciclib + Tozasertib = compound: CC[C@H](CO)Nc1nc(NCc2ccccc2)c2ncn(C(C)C)c2n1 [Seliciclib] + Cc1cc(Nc2cc(N3CCN(C)CC3)nc(Sc3ccc(NC(=O)C4CC4)cc3)n2)n[nH]1 [Tozasertib] (partner 0.1 µM)
Summary of the method: as §1

Cell Line | relative viability (Seliciclib + Foretinib; first compound 0.08 µM) | relative viability (Seliciclib + Foretinib; first compound 0.8 µM) | relative viability (Seliciclib + Foretinib; first compound 2.53 µM) | relative viability (Seliciclib + Foretinib; first compound 8 µM) | relative viability (Seliciclib + Luminespib; first compound 0.08 µM) | relative viability (Seliciclib + Luminespib; first compound 0.8 µM) | relative viability (Seliciclib + Luminespib; first compound 2.53 µM) | relative viability (Seliciclib + Luminespib; first compound 8 µM) | relative viability (Seliciclib + AZD7762; first compound 0.08 µM) | relative viability (Seliciclib + AZD7762; first compound 0.253 µM) | relative viability (Seliciclib + AZD7762; first compound 0.8 µM) | relative viability (Seliciclib + AZD7762; first compound 2.53 µM) | relative viability (Seliciclib + AZD7762; first compound 8 µM) | relative viability (Seliciclib + Tozasertib; first compound 0.08 µM) | relative viability (Seliciclib + Tozasertib; first compound 0.253 µM) | relative viability (Seliciclib + Tozasertib; first compound 0.8 µM) | relative viability (Seliciclib + Tozasertib; first compound 2.53 µM) | relative viability (Seliciclib + Tozasertib; first compound 8 µM) | relative viability (Seliciclib + Foretinib; first compound 0.253 µM) | relative viability (Seliciclib + Luminespib; first compound 0.253 µM)
NCI-H3122 | 1.03 | 0.938 | 0.983 | 0.786 | 0.0896 | 0.1 | 0.0781 | 0.11 | 0.935 | 0.939 | 0.915 | 0.959 | 0.897 | 0.428 | 0.347 | 0.393 | 0.378 | 0.329 |  | 
PC-3 [JPC-3] | 1.07 | 0.997 | 0.997 | 0.809 | 0.81 | 0.63 | 0.605 | 0.66 | 0.994 | 1 | 0.77 | 0.617 | 0.718 | 0.883 | 0.837 | 0.871 | 0.88 | 0.708 | 1.09 | 0.584
PC-14 | 0.884 | 0.902 | 0.997 | 0.843 | 0.179 | 0.114 | 0.135 | 0.203 | 0.358 | 0.35 | 0.358 | 0.354 | 0.331 | 0.551 | 0.608 | 0.55 | 0.574 | 0.445 | 0.971 | 
RERF-LC-KJ | 0.828 | 0.83 | 0.922 | 0.803 | 1.29 | 1.21 | 1.28 | 0.859 | 0.861 | 0.894 | 0.992 | 0.837 | 0.789 | 0.455 | 0.537 | 0.441 | 0.493 | 0.457 | 0.748 | 1.07
SW 900 | 0.802 | 0.784 | 0.765 | 0.891 | 0.148 | 0.14 | 0.17 | 0.168 | 0.537 | 0.616 | 0.704 | 0.647 | 0.559 | 0.79 | 0.689 | 0.488 | 0.401 | 0.307 | 0.995 | 0.147
